Where a name gives a salt, the structure may show the parent alone.

27 molecules from patent US8815840B2, “Carbazole and carboline kinase inhibitors” (Bristol-Myers Squibb Company, priority 2008, dated 2014) can be followed below.

JAK2, sequence (O60674 whole entry): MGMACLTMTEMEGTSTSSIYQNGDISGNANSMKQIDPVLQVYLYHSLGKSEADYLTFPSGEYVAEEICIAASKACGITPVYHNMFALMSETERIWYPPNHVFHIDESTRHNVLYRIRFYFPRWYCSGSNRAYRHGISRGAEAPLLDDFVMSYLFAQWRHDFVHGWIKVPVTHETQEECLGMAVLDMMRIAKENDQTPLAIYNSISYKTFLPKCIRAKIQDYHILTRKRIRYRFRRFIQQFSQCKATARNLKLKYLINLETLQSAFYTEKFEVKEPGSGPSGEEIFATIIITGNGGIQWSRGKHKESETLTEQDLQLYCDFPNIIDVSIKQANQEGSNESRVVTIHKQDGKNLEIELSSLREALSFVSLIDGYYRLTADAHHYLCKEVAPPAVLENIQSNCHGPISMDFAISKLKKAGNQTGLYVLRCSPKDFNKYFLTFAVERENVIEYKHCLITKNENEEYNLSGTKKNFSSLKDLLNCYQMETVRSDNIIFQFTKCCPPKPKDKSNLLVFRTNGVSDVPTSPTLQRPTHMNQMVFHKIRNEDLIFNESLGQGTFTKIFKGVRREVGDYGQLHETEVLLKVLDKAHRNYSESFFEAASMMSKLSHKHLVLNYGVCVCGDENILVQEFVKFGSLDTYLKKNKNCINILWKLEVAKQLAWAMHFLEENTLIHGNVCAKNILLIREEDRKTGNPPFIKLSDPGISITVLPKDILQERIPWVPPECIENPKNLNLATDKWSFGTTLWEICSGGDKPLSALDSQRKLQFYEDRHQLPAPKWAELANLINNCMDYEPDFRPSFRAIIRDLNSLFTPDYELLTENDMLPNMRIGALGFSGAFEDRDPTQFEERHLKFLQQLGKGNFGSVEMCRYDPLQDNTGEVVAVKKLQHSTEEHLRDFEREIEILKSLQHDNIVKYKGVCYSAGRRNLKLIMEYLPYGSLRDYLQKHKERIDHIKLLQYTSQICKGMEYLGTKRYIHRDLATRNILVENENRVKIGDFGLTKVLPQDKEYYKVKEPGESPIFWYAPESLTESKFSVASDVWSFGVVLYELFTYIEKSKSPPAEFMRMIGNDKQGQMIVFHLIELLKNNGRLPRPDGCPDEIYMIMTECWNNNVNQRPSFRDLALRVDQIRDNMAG

For this assay, the target named is JAK2 (Homo sapiens (Human), UniProt O60674). Briefly: JAK2 Tyrosine Kinase Assay. It is filed as biochemical. Conditions: ATP 30 μM; JAK2 1 nM; 60 min at room temperature. Here is the method:
JAK2 Tyrosine Kinase Assay
The assays were performed in V-bottom 384-well plates. […] The reaction was initiated by the combination of JAK2 with substrates and test compounds. The reaction was incubated at room temperature for 60 min. and terminated by adding 45 μl of 35 mM EDTA to each sample. The reaction mixture was analyzed on the Caliper LABCHIP® 3000 by electrophoretic separation of the fluorescent substrate and phosphorylated product. […] Compounds were dissolved at 10 mM in dimethylsulfoxide (DMSO) and evaluated at eleven concentrations, each in duplicate. IC50 values were derived by non-linear regression analysis
For `COc1ccc(-c2cc(C(N)=O)c3[nH]c4ccc(C(=O)N5CCC(O)CC5)cc4c3c2)cc1F` [Example 197, 3-(3-fluoro-4-methoxyphenyl)-6-(4-hydroxypiperidine-1-carbonyl)-9H-carbazole-1-carboxamide], the concentration for half-maximal inhibition (IC50) was 1 nM.
The value for `COc1cccc(-c2cc(C(N)=O)c3[nH]c4ccncc4c3c2)c1` [Example 203, 8-(3-Methoxyphenyl)-5H-pyrido[4,3-b]indole-6-carboxamide, HCl] was 34 nM; that for `COc1cccc(-c2cc(C(N)=O)c3[nH]c4cccnc4c3c2)c1` [Example 204, 8-(3-Methoxyphenyl)-5H-pyrido[3,2-b]indole-6-carboxamide, HCl] was 29 nM.
Under `COc1ccc(-c2nc(C(N)=O)c3[nH]c4cc(OC)ccc4c3n2)cc1` [Example 210, 7-Methoxy-2-(4-methoxyphenyl)-5H-pyrimido[5,4-b]indole-4-carboxamide] stands 170 nM.
Under `COc1ccc(-c2cc(C(N)=O)c3[nH]c4cc(C(=O)N5CC[C@H](N(C)C)C5)ccc4c3n2)cc1F` [Example 211, (S)-7-(3-(Dimethylamino)pyrrolidine-1-carbonyl)-2-(3-fluoro-4-methoxyphenyl)-5H-pyrido[3,2-b]indole-4-carboxamide] stands under 1 nM.
For `NC(=O)c1cc(-c2ccc(F)c(F)c2)nc2c1[nH]c1cc(C(=O)N3CCOCC3)ccc12` [Example 216, 2-(3,4-difluorophenyl)-7-(4-morpholinylcarbonyl)-5H-pyrido[3,2-b]indole-4-carboxamide], the IC50 was 7 nM.
The value for `NC(=O)c1cc(-c2ccc(Cl)cc2)nc2c1[nH]c1cc(C(=O)N3CCOCC3)ccc12` [Example 227, 2-(4-chlorophenyl)-7-(4-morpholinylcarbonyl)-5H-pyrido[3,2-b]indole-4-carboxamide] was 2 nM; that for `NC(=O)c1cc(-c2ccc(Cl)c(Cl)c2)nc2c1[nH]c1cc(OCCN3CCOCC3)ccc12` [Example 245] was 7 nM.
`CC(C)(C)N1CCN(Cc2ccc3c(c2)[nH]c2c(C(N)=O)cc(-c4cccc(Cl)c4)nc23)CC1` [Example 256, 7((4-tert-Butyl-1-piperazinyl)methyl)-2-(3-chlorophenyl)-5H-pyrido[3,2-b]indole-4-carboxamide]: the half-maximal inhibitory concentration (IC50) stood at 1 nM.
Under `NC(=O)c1cc(-c2cccc(Cl)c2)nc2c1[nH]c1ccc(CN3CCOCC3)cc12` [Example 257, 2-(3-Chlorophenyl)-8-(morpholinomethyl)-5H-pyrido[3,2-b]indole-4-carboxamide] stands 1 nM.
The value for `CN1CCN(c2ccc3c(c2)[nH]c2c(C(N)=O)cc(-c4cccc(Cl)c4)nc23)CC1` [Example 309, 2-(3-chlorophenyl)-7-(4-methylpiperazin-1-yl)-5H-pyrido[3,2-b]indole-4-carboxamide] was 1 nM; that for `COc1ccc(-c2cc(C(N)=O)c3[nH]c4cc(N5CCN(C)CC5)ccc4c3n2)cc1F` [Example 310, 2-(3-fluoro-4-methoxyphenyl)-7-(4-methylpiperazin-1-yl)-5H-pyrido[3,2-b]indole-4-carboxamide] was 1 nM; that for `NC(=O)c1cc(-c2cccc(C(F)(F)F)c2)nc2c1[nH]c1cc(N3CCNCC3)ccc12` [Example 316, 7-(Piperazin-1-yl)-2-(3-(trifluoromethyl)phenyl)-5H-pyrido[3,2-b]indole-4-carboxamide] was 6 nM.
The value for `NC(=O)c1cc(-c2ccc(CN3CCOCC3)cc2)nc2c1[nH]c1cc(N3CCS(=O)(=O)CC3)ccc12` [Example 323, 7-(1,1-Dioxido-4-thiomorpholinyl)-2-(4-(4-morpholinylmethyl)phenyl)-5H-pyrido[3,2-b]indole-4-carboxamide] was 1 nM; that for `NC(=O)c1cc(-c2ccc(CN3CCOCC3)s2)nc2c1[nH]c1cc(N3CCOCC3=O)ccc12` [Example 324, 2-(5-(Morpholinomethyl)thiophen-2-yl)-7-(3-oxomorpholino)-5H-pyrido[3,2-b]indole-4-carboxamide] was 1 nM; that for `COc1ccc(-c2cc(C(N)=O)c3[nH]c4cc(N5CCOCC5)ccc4c3n2)cc1F` [Example 344, 2-(3-fluoro-4-methoxyphenyl)-7-morpholino-5H-pyrido[3,2-b] indole-4-carboxamide] was 1 nM.
As to `NC(=O)c1cc(-c2ccc(CN3CCOCC3)s2)nc2c1[nH]c1cc(N3CCOCC3)ccc12` [Example 345, 7-morpholino-2-(5-(morpholinomethyl)thiophen-2-yl)-5H-pyrido[3,2-b] indole-4-carboxamide], the IC50 is 1 nM.
As for `NC(=O)c1cc(-c2ccc(OCCN3CCOCC3)c(Cl)c2)nc2c1[nH]c1cc(N3CCOCC3)ccc12` [Example 353, 2-(3-Chloro-4-(2-morpholinoethoxy)phenyl)-7-morpholino-5H-pyrido[3 ,2-b]indole-4-carboxamide], the half-maximal inhibitory concentration (IC50) is 1 nM.
Under `COCCOc1ccc(-c2cc(C(N)=O)c3[nH]c4cc(N5CCOCC5)ccc4c3n2)cc1Cl` [Example 357, 2-(3-chloro-4-(2-methoxyethoxy)phenyl)-7-morpholino-5H-pyrido[3,2-b]indole-4-carboxamide] stands 6 nM.
Take `NC(=O)c1cc(-c2ccc(OC3CCNCC3)c(Cl)c2)nc2c1[nH]c1cc(N3CCOCC3)ccc12` [Example 360, 2-(3-chloro-4-(piperidin-4-yloxy)phenyl)-7-morpholino-5H-pyrido[3,2-b]indole-4-carboxamide]: the IC50 was found to be 7 nM.
The value for `COCCN1CCN(Cc2ccc(-c3cc(C(N)=O)c4[nH]c5cc(N6CCOCC6)ccc5c4n3)s2)CC1` [Example 373, 2-(5-((4-(2-methoxyethyl)piperazin-1-yl)methyl)thiophen-2-yl)-7-morpholino-5H-pyrido[3,2-b]indole-4-carboxamide] was 6 nM.
On to `NC(=O)c1cc(-c2cc(CN3CCOCC3)co2)nc2c1[nH]c1cc(N3CCOCC3)ccc12` [Example 374, 7-morpholino-2-(4-(mor-pholinomethyl)furan-2-yl)-5H-pyrido[3,2-b]indole-4-carboxamide], for which the IC50 turned out to be 6 nM.
The value for `COc1ccc(-c2cc(C(N)=O)c3[nH]c4cc(C(=O)O)ccc4c3c2)cc1F` [Example 395, 8-Carbamoyl-6-(3-fluoro-4-methoxyphenyl)-9H-carbazole-2-carboxylate] was 111 nM; that for `NC(=O)c1cc(N2CCOCC2)nc2c1[nH]c1cc(C(=O)N3CCOCC3)ccc12` [Example 403, 7-(morpholine-4-carbonyl)-2-morpholino-5H-pyrido[3,2-b]indole-4-carboxamide] was 142 nM.
As for `NC(=O)c1cc(N2CCC(N)CC2)nc2c1[nH]c1cc(C(=O)N3CCOCC3)ccc12` [Example 405, 2-(4-aminopiperidin-1-yl)-7-(morpholine-4-carbonyl)-5H-pyrido[3,2-b]indole-4-carboxamide], the IC50 came to 636 nM.
The value for `Cc1ccc(-c2cc(C(N)=O)c3[nH]c4ccc(C(=O)O)cc4c3c2)c(F)c1` [Example 424, 8-Carbamoyl-6-(2-fluoro-4-methylphenyl)-9H-carbazole-3-carboxylic acid] was 1 nM.
The value for `NC(=O)c1cc(-c2ncccn2)cc2c1[nH]c1cc(C(=O)N3CCOCC3)ccc12` [Example 430, 7-(Morpholine-4-carbonyl)-3-(pyrimidin-2-yl)-9H-carbazole-1-carboxamide] was 1 nM.
